In patent publication US9579303B2, “Compositions containing polysaccharides” (DSM IP ASSETS B.V., priority 2005, dated 2017):

What was measured:
[1] = Granule size distribution by sieve analysis; format: physicochemical
[2] = Flowability: time for 100 g to flow through an 11-mm funnel orifice; format: physicochemical; conditions: 100 g through an 11-mm orifice of a funnel
Procedure: The flowability was determined by the time needed to have 100 g of genistein crystals or genistein granules flowing through an 11-mm orifice of a funnel.

## O=c1c(-c2ccc(O)cc2)coc2cc(O)cc(O)c12 [Genistein crystal, genistein]
[1]; sieve fraction <150 μm
  Granule Particle Size Distribution <150 μm: 7.2%
[1]; sieve fraction >150 μm
  Granule Particle Size Distribution >150 μm: 28.2%
[1]; sieve fraction >250 μm
  Granule Particle Size Distribution >250 μm: 50%
[1]; sieve fraction >425 μm
  Granule Particle Size Distribution >425 μm: 14.5%
[1]; sieve fraction >600 μm
  Granule Particle Size Distribution >600 μm: 0%
[1]; sieve fraction >800 μm
  Granule Particle Size Distribution >800 μm: 0%
[1]; sieve fraction >850 μm
  Granule Particle Size Distribution >850 μm: 0.1%
[2]
  Flowability: No flow
